In one series the test system is CYP1A2. Description: Unbound intrinsic metabolic clearance assigned to CYP1A2. The series is classed as in vitro ADME. The conditions noted are these: human, human liver microsomes and recombinant enzymes.
For another series, the system named is FMO3. Description: Unbound intrinsic metabolic clearance assigned to FMO3. The format is in vitro ADME. The conditions noted are these: human, human liver microsomes and recombinant enzymes.
For series [1] the following is noted: olanzapine PBPK input, cited from earlier work.
The target of series [2] is T1, CYP3A4 (Homo sapiens, UniProt P08684). The conditions noted are these: cited from earlier work.
The subject of a further series is UGT1A4. Description: Unbound intrinsic metabolic clearance assigned to UGT1A4. The format is in vitro ADME. The note with it: human, human liver microsomes and recombinant enzymes.
The conditions of series [3]: cited from earlier work.
In a further series the test system is CYP2C8. Description: Unbound intrinsic metabolic clearance assigned to CYP2C8. The format is in vitro ADME. The note with it: human, human liver microsomes and recombinant enzymes. A general note: Liver microsomes are a subcellular fraction often used to study metabolism.
Series [4] concerns the target T1, CYP3A4. The series is classed as in vitro ADME.
The nature of series [5]: Unbound intrinsic metabolic clearance. The note with it: human. The format is in vitro ADME.
The conditions of series [6]: cited from earlier work. The source holds these as a separate data set.
The nature of series [7]: Caco-2 apical-to-basolateral apparent permeability. The series is classed as in vitro ADME. The note with it: human. (Passage across Caco-2 layers is used to estimate intestinal permeability.)
Another series concerns human κ‐opioid receptor. The note with it: in vitro; cited from earlier work.
Series [8] in a line: Blood-to-plasma partition ratio and fraction unbound in plasma. The format is in vitro ADME.
The test system of the next series is δ‐opioid receptors. The note with it: in vitro; cited from earlier work.
The next series deals with κ‐opioid receptors. The conditions noted are these: in vitro; cited from earlier work.
Series [9] can be described thus: Physicochemical properties used as PBPK inputs. The conditions noted are these: samidorphan, unpublished data provided by Alkermes.
For a further series, the system named is opioid receptor. The note with it: cited from earlier work.
Another series has as its system human δ‐opioid receptor. The conditions noted are these: in vitro; cited from earlier work.
The target of a further series is CYP2D6 (Homo sapiens, UniProt P10635). Kind of series: CYP2D6 competitive inhibition. The format is biochemical.
A short description of series [10]: Renal clearance / renal excretion of unchanged drug. The conditions noted are these: human, in vivo.
Series [11] can be described thus: Fraction unbound in microsomal incubation. The series is classed as in vitro ADME. The conditions noted are these: 0.5 mg/mL microsomal incubation; unpublished data provided by Alkermes.
The subject of the next series is non-CYP3A4 enzymes. Kind of series: Unbound intrinsic metabolic clearance. The conditions noted are these: human. The format is in vitro ADME.
The subject of the next series is human μ‐opioid receptor. The conditions noted are these: in vitro; cited from earlier work.
A further series concerns μ‐opioid receptors. The note with it: in vitro; cited from earlier work.
Setting [12] is: ± itraconazole 200 mg q.d., observed, sublingual BUP/SAM 2/2.

Like-named read-outs stand apart in the source and are kept apart here.

T1 sequence (P08684 whole entry): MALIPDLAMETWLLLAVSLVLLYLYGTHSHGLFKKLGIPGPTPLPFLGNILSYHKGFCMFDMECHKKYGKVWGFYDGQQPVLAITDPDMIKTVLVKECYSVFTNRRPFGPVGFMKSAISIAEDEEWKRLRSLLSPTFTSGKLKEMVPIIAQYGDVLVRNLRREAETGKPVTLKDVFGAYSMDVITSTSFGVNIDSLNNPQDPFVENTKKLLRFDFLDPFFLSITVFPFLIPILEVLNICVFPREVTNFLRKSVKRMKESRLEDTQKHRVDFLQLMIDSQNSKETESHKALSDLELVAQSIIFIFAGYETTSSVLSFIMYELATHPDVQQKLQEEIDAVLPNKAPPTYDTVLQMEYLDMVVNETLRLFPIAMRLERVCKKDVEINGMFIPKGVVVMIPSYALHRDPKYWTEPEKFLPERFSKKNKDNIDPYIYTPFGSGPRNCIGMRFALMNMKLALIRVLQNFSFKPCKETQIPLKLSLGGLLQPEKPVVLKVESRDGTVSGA
Sequence of CYP2D6 (P10635 whole entry): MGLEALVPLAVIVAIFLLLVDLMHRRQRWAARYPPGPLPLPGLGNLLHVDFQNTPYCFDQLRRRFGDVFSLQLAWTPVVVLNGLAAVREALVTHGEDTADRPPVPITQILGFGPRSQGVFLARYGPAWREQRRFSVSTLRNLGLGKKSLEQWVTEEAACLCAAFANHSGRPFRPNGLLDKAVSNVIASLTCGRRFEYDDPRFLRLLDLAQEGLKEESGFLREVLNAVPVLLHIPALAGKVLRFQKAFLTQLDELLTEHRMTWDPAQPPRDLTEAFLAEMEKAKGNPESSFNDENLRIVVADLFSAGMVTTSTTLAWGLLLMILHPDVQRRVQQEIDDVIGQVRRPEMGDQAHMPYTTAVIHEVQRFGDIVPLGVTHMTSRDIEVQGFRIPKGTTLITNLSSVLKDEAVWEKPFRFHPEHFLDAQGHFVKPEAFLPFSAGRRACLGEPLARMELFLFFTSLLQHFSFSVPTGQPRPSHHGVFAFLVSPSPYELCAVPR

For the molecule `Cc1cc2c(s1)Nc1ccccc1N=C2N1CCN(C)CC1` [Olanzapine, olanzapine], the microsomal CLint in the series on CYP1A2 was 23.7 µL/min/mg; with FMO3 it was 4.28 µL/min/mg; in the series with UGT1A4, 20.6 µL/min/mg; with CYP2C8 it was 4.98 µL/min/mg; at CYP3A4 [4] (human liver microsomes and recombinant enzymes) it was 4.42 µL/min/mg; in series [5], 57.9 µL/min/mg. For the same molecule, in series [1] (ref Callaghan et al.21), the Compound type entry is on record as “Monoprotic base”. In addition, the “log P” value in [1] (ref El‐Ela et al.29) is reported as 2.89. On CYP3A4 [2], the “contribution of CYP3A4 to the overall clearance” value is listed as less than 10%. For the same molecule, in series [3], the “administered dose excreted renally as unchanged drug” value is reported as 7%. The “CLR (renal clearance)” value in series [3] (olanzapine, ref Kassahun et al.15) is 0.81 L/h. In addition, the “AUC lower in smokers than in nonsmokers” value in [6] (pharmacokinetics study (N = 49)) is reported as 15%. Further, the “increase in clearance, smokers vs. nonsmokers” value in series [6] (population pharmacokinetic analysis (N = 523)) is on record as 55%. The Papp A→B in series [7] (Caco-2, pH 7.4) was determined as 17.4 ×10⁻⁶ cm/s.
In the case of `NC(=O)c1ccc2c(c1O)[C@]13CCN(CC4CC4)[C@H](C2)[C@]1(O)CCC(=O)C3` [Samidorphan, samidorphan], the “binding affinity (in words)” value in the series on human κ‐opioid receptor, in the series on human δ‐opioid receptor and with human μ‐opioid receptor was “high affinity” in each case. The fraction unbound in series [8] (plasma) was determined as 0.69. In series [8] (samidorphan, unpublished data provided by Alkermes), the “B:P (blood‐to‐plasma partition ratio)” value turned out to be 1. Further, the “functional activity (in words)” value is “partial agonist” with δ‐opioid receptors, “partial agonist” in the series on κ‐opioid receptors and “antagonist” in the series with μ‐opioid receptors. Moreover, the pKa is 7.5 in [9] (pKa1 (acid)) and 8.2 in [9] (pKa2 (base)). Also, the Compound type result in series [9] is on record as “Ampholyte”. The microsomal CLint at CYP3A4 [4] amounted to 5.93 µL/min/mg; with non-CYP3A4 enzymes it was 5.22 µL/min/mg; in series [5], 11.2 µL/min/mg. Besides, in the series with opioid receptor, the “in vivo function (in words)” value is listed as “opioid receptor antagonist”. The Ki on CYP2D6 was 41.5 µM. In series [10], the CL renal was 183 mL/min. The “fumic at 0.5 mg/mL” value in [11] is given as 0.86. For the same molecule, the “AUC ratio (geometric mean)” value in [6] (setting [12]) is listed as 1.50. Further, the “Cmax ratio (geometric mean)” value in series [6] (setting [12]) is reported as 1.12. Besides, the Papp A→B in series [7] (Caco-2, pH 6.5) amounted to 18.8 ×10⁻⁶ cm/s.

Broadly, the microsomal CLint is the capacity of the preparation to metabolise the compound, expressed as a volume cleared per time. By log P is commonly meant the decadic logarithm of the partition coefficient of the neutral form, usually between octanol and water. Broadly, the Papp A→B is the apparent permeability from the apical to the basolateral side of a cell layer. Usually fraction unbound stands for free concentration divided by total concentration. The pKa is the negative logarithm of the acid dissociation constant. A lower pKa goes with a stronger acid or weaker base. For orientation: Ki means the dissociation constant of the complex between target and ligand, obtained from inhibition or displacement. A higher Ki goes with lower affinity.

Source of the values: publication PMC7020312 (CPT: Pharmacometrics & Systems Pharmacology, 2020).
